Consider one substance from US12282026B2, “Method for screening personalized intestinal environment-improving material and composition therefor” (HEM PHARMA INC., priority 2019, dated 2025).

This test concerns feces samples. The test is classed as cell-based, human.

As for Clostridium butyricum [CB], the “change in amount of butyrate” value is “increases significantly”.
